# Data published in PubChem BioAssay (NCI).
#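 Following 48 hours of exposure in 96-well plates, responses at five concentrations were used to interpolate endpoints linearly. GI50: concentration for 50% inhibition of growth. At the TGI there is no net growth.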
# Tests used:
# Assay in all cases: growth of human tumour cells (NCI), 48 h
# [1] = test system: 786-0 renal
# [2] = test system: A498 renal
# [3] = test system: A549 NSCLC
# [4] = test system: ACHN renal
# [5] = test system: BT-549 breast
# [6] = test system: CAKI-1 renal
# [7] = test system: CCRF-CEM leukemia
# [8] = test system: COLO 205 colon
# [9] = test system: EKVX NSCLC
# [10] = test system: HCT-116 colon
# [11] = test system: HCT-15 colon
# [12] = test system: HOP-62 NSCLC
# [13] = test system: HOP-92 NSCLC
# [14] = test system: HS 578T breast
# [15] = test system: HT29 colon
# [16] = test system: IGROV1 ovarian
# [17] = test system: K-562 leukemia
# [18] = test system: KM12 colon
# [19] = test system: LOX IMVI melanoma
# [20] = test system: M14 melanoma
# [21] = test system: MALME-3M melanoma
# [22] = test system: MCF7 breast
# [23] = test system: MDA-MB-231 breast
# [24] = test system: MDA-MB-435
# [25] = test system: MOLT-4 leukemia
# [26] = test system: NCI-H226 lung
# [27] = test system: NCI-H23 lung
# [28] = test system: NCI-H460 lung
# [29] = test system: NCI-H522 lung
# [30] = test system: NCI/ADR-RES ovarian
# [31] = test system: OVCAR-3 ovarian
# [32] = test system: OVCAR-4 ovarian
# [33] = test system: OVCAR-5 ovarian
# [34] = test system: OVCAR-8 ovarian
# [35] = test system: PC-3 prostate
# [36] = test system: RPMI-8226 leukemia
# [37] = test system: RXF 393 renal
# [38] = test system: SF-268 CNS
# [39] = test system: SF-295 CNS
# [40] = test system: SF-539 CNS
# [41] = test system: SK-MEL-2 melanoma
# [42] = test system: SK-MEL-5 melanoma
# [43] = test system: SK-OV-3 ovarian
# [44] = test system: SNB-19 CNS
# [45] = test system: SNB-75 CNS
# [46] = test system: SR leukemia
# [47] = test system: SW-620 colon
# [48] = test system: T-47D breast
# [49] = test system: TK-10 renal
# [50] = test system: U251 CNS
# [51] = test system: UACC-257 melanoma
# [52] = test system: UACC-62 melanoma
# [53] = test system: UO-31 renal
# [54] = test system: DU-145 prostate
# [55] = test system: HCC-2998 colon
# [56] = test system: HL-60(TB) leukemia
# [57] = test system: SK-MEL-28 melanoma
# [58] = test system: SN12C renal
smiles,measurement,setting,value
COc1ccc(-c2cc(-c3ccncc3)nc(N)c2-c2ccc(F)cc2)cc1,TGI,[1],> 100000 nM
same,TGI,[2],> 100000 nM
same,TGI,[3],> 100000 nM
same,TGI,[4],75400 nM
same,TGI,[5],> 100000 nM
same,TGI,[6],> 100000 nM
same,TGI,[7],> 100000 nM
same,TGI,[8],97300 nM
same,TGI,[9],> 100000 nM
same,TGI,[10],51700 nM
same,TGI,[11],> 100000 nM
same,TGI,[12],> 100000 nM
same,TGI,[13],> 100000 nM
same,TGI,[14],> 100000 nM
same,TGI,[15],> 100000 nM
same,TGI,[16],> 100000 nM
same,TGI,[17],> 100000 nM
same,TGI,[18],> 100000 nM
same,TGI,[19],> 100000 nM
same,TGI,[20],> 100000 nM
same,TGI,[21],> 100000 nM
same,TGI,[22],> 100000 nM
same,TGI,[23],> 100000 nM
same,TGI,[24],> 100000 nM
same,TGI,[25],> 100000 nM
same,TGI,[26],> 100000 nM
same,TGI,[27],> 100000 nM
same,TGI,[28],57600 nM
same,TGI,[29],27100 nM
same,TGI,[30],> 100000 nM
same,TGI,[31],> 100000 nM
same,TGI,[32],> 100000 nM
same,TGI,[33],> 100000 nM
same,TGI,[34],> 100000 nM
same,TGI,[35],> 100000 nM
same,TGI,[36],> 100000 nM
same,TGI,[37],68600 nM
same,TGI,[38],> 100000 nM
same,TGI,[39],> 100000 nM
same,TGI,[40],46800 nM
same,TGI,[41],> 100000 nM
same,TGI,[42],> 100000 nM
same,TGI,[43],> 100000 nM
same,TGI,[44],> 100000 nM
same,TGI,[45],> 100000 nM
same,TGI,[46],38700 nM
same,TGI,[47],> 100000 nM
same,TGI,[48],> 100000 nM
same,TGI,[49],> 100000 nM
same,TGI,[50],> 100000 nM
same,TGI,[51],> 100000 nM
same,TGI,[52],> 100000 nM
same,TGI,[53],> 100000 nM
COc1cc(Nc2nccc(-c3cnn4ncccc34)n2)cc(OC)c1,GI50,[1],86.1 nM
same,TGI,[1],> 17600 nM
same,GI50,[2],57.6 nM
same,TGI,[2],183 nM
same,GI50,[3],119 nM
same,TGI,[3],5670 nM
same,GI50,[4],56.5 nM
same,TGI,[4],4160 nM
same,GI50,[5],89.3 nM
same,TGI,[5],2190 nM
same,GI50,[6],70.3 nM
same,TGI,[6],4020 nM
same,GI50,[7],66.8 nM
same,GI50,[8],55.3 nM
same,TGI,[8],164 nM
same,GI50,[54],72.4 nM
same,TGI,[54],2820 nM
same,GI50,[9],113 nM
same,TGI,[9],4960 nM
same,GI50,[55],104 nM
same,TGI,[55],1710 nM
same,GI50,[10],43.9 nM
same,TGI,[10],> 14900 nM
same,GI50,[11],88.9 nM
same,TGI,[11],> 5170 nM
same,GI50,[56],36.2 nM
same,TGI,[56],120 nM
same,GI50,[12],86.8 nM
same,TGI,[12],651 nM
same,GI50,[13],31.7 nM
same,TGI,[13],151 nM
same,GI50,[14],96 nM
same,TGI,[14],> 5620 nM
same,GI50,[15],84.2 nM
same,TGI,[15],709 nM
same,GI50,[16],91.6 nM
same,TGI,[16],> 23900 nM
same,GI50,[17],115 nM
same,TGI,[17],> 25000 nM
same,GI50,[18],34.9 nM
same,TGI,[18],272 nM
same,GI50,[19],53.9 nM
same,TGI,[19],> 9540 nM
same,GI50,[20],89.1 nM
same,TGI,[20],838 nM
same,GI50,[21],132 nM
same,TGI,[21],1260 nM
same,GI50,[22],52.1 nM
same,TGI,[22],200 nM
same,GI50,[23],75.1 nM
same,TGI,[23],> 11900 nM
same,GI50,[24],70 nM
same,TGI,[24],859 nM
same,GI50,[25],51.6 nM
same,TGI,[25],165 nM
same,GI50,[26],57.7 nM
same,TGI,[26],324 nM
same,GI50,[27],57.9 nM
same,TGI,[27],586 nM
same,GI50,[28],53.9 nM
same,TGI,[28],2930 nM
same,GI50,[29],79 nM
same,TGI,[29],619 nM
same,GI50,[30],93.7 nM
same,TGI,[30],2260 nM
same,GI50,[31],50.9 nM
same,TGI,[31],822 nM
same,GI50,[32],268 nM
same,TGI,[32],1350 nM
same,GI50,[33],75.9 nM
same,TGI,[33],1900 nM
same,GI50,[34],80.2 nM
same,TGI,[34],> 12700 nM
same,GI50,[35],84.3 nM
same,TGI,[35],2740 nM
same,GI50,[36],86.2 nM
same,TGI,[36],388 nM
same,GI50,[37],45.5 nM
same,TGI,[37],131 nM
same,GI50,[38],69.7 nM
same,TGI,[38],480 nM
same,GI50,[39],57.2 nM
same,TGI,[39],721 nM
same,GI50,[40],63.7 nM
same,TGI,[40],257 nM
same,GI50,[57],72.6 nM
same,TGI,[57],380 nM
same,GI50,[42],151 nM
same,TGI,[42],3190 nM
same,GI50,[43],418 nM
same,TGI,[43],9840 nM
same,GI50,[58],94.2 nM
same,TGI,[58],> 25000 nM
same,GI50,[44],83.6 nM
same,TGI,[44],> 25000 nM
same,GI50,[45],75.4 nM
same,TGI,[45],308 nM
same,GI50,[47],75.8 nM
same,TGI,[47],4780 nM
same,GI50,[48],122 nM
same,TGI,[48],1550 nM
same,GI50,[49],98.2 nM
same,TGI,[49],406 nM
same,GI50,[50],75 nM
same,TGI,[50],2460 nM
same,GI50,[51],84.4 nM
same,TGI,[51],480 nM
same,GI50,[52],53.2 nM
same,TGI,[52],223 nM
same,GI50,[53],55 nM
same,TGI,[53],196 nM
CO[C@]12C=C/C(=C(/C(=O)OCc3cccnc3)C(=O)CCCCCCCC[C@]3(OC)C=C/C(=C(/C(=O)OCc4cccnc4)C(=O)CCCCCCCC1)O3)O2,GI50,[2],432 nM
same,TGI,[2],1720 nM
same,GI50,[54],375 nM
same,TGI,[54],1270 nM
same,GI50,[56],337 nM
same,TGI,[56],1020 nM
same,GI50,[13],262 nM
same,TGI,[13],889 nM
same,GI50,[17],337 nM
same,TGI,[17],1300 nM
same,GI50,[18],207 nM
same,TGI,[18],429 nM
same,GI50,[28],321 nM
same,TGI,[28],1020 nM
same,GI50,[29],225 nM
same,TGI,[29],554 nM
same,GI50,[31],312 nM
same,TGI,[31],917 nM
same,GI50,[36],291 nM
same,TGI,[36],927 nM
same,GI50,[45],247 nM
same,TGI,[45],1200 nM
same,GI50,[49],583 nM
same,TGI,[49],1960 nM
